Key:
[1] = test system: MCF7R; assay: Compound was evaluated for multi-drug resistance (MDR) reversal at 1 uM concentration in MCF7-R cell line when co-administered with Paclitaxel; assay type: functional, Homo sapiens
[2] = test system: MCF7R; assay: Cytotoxicity was evaluated at 1 uM concentration in MCF7-R cell line when co-administered with Paclitaxel; assay type: functional, cell-based; conditions: Homo sapiens
[3] = test system: MDA-MB-435; assay: Compound was evaluated for multi-drug resistance (MDR) reversal at 1 uM concentration in MDA 435/LCC6-MDR cell line when co-administered with Paclitaxel; assay type: functional, Homo sapiens
[4] = test system: MDA-MB-435; assay: Cytotoxicity was evaluated at 1 uM concentration in MDA 435/LCC6-MDR cell line when co-administered with Paclitaxel; assay type: functional, cell-based; conditions: Homo sapiens
[5] = test system: MCF7R; assay: Cytotoxicity was evaluated at 3 uM concentration in MCF7-R cell line when co-administered with Paclitaxel; assay type: functional, cell-based; conditions: Homo sapiens
[6] = test system: MCF7R; assay: Compound was evaluated for multi-drug resistance (MDR) reversal at 3 uM concentration in MCF7-R cell line when co-administered with Paclitaxel; assay type: functional, Homo sapiens
[7] = test system: MDA-MB-435; assay: Cytotoxicity was evaluated at 0.1 uM concentration in MDA 435/LCC6-MDR cell line when co-administered with Paclitaxel; assay type: functional, cell-based; conditions: Homo sapiens
[8] = test system: MDA-MB-435; assay: Compound was evaluated for multi-drug resistance (MDR) reversal at 0.1 uM concentration in MDA 435/LCC6-MDR cell line when co-administered with Paclitaxel; assay type: functional, Homo sapiens
[9] = test system: MDA-MB-435; assay: Compound was evaluated for multi-drug resistance (MDR) reversal at 3 uM concentration in MDA 435/LCC6-MDR cell line when co-administered with Paclitaxel; assay type: functional, Homo sapiens
[10] = test system: MDA-MB-435; assay: Cytotoxicity was evaluated at 3 uM concentration in MDA 435/LCC6-MDR cell line when co-administered with Paclitaxel; assay type: functional, cell-based; conditions: Homo sapiens
[11] = test system: MCF7R; assay: Compound was evaluated for multi-drug resistance (MDR) reversal in MCF7-R cell line; assay type: functional, Homo sapiens
[12] = test system: MDA-MB-435; assay: Compound was evaluated for multi-drug resistance (MDR) reversal in MDA 435/LCC6-MDR cell line; assay type: functional, Homo sapiens
[13] = test system: MDA-MB-435; assay: Cytotoxicity was evaluated in MDA 435/LCC6-MDR cell line; assay type: functional, cell-based; conditions: Homo sapiens
[14] = test system: MCF7R; assay: Cytotoxicity was evaluated in MCF7-R cell line; assay type: functional, cell-based; conditions: Homo sapiens

CC(=O)O[C@@]12CO[C@@H]1C[C@H](OC(=O)CCc1ccc(C(=O)c3ccccc3)cc1)[C@@]1(C)C(=O)[C@H](OC(=O)CCc3ccc(C(=O)c4ccccc4)cc3)C3=C(C)[C@@H](O)C[C@@](O)([C@@H](OC(=O)c4ccccc4)[C@H]21)C3(C)C
Reduction [1]: 99.7% | IC50 [2]: 2.6 nM

CC(=O)O[C@H]1C(=O)[C@]2(C)[C@@H](OC(=O)/C=C/c3ccc4ccccc4c3)C[C@H]3OC[C@@]3(OC(C)=O)[C@H]2[C@H](OC(=O)c2ccccc2)[C@]2(O)C[C@H](O)C(C)=C1C2(C)C
Reduction [3]: 50% | Reduction [1]: 96% | IC50 [4]: 430 nM | IC50 [2]: 36 nM

CC(=O)O[C@@]12CO[C@@H]1C[C@H](OC(=O)OCC(Cl)(Cl)Cl)[C@@]1(C)C(=O)[C@H](OC(=O)OCC(Cl)(Cl)Cl)C3=C(C)[C@@H](OC(=O)/C=C/c4ccc5ccccc5c4)C[C@@](O)([C@@H](OC(=O)c4ccccc4)[C@H]21)C3(C)C
IC50 [5]: 750 nM | Reduction [6]: 12%

CC(=O)O[C@H]1C(=O)[C@]2(C)[C@@H](OC(=O)CCc3ccc4ccccc4c3)C[C@H]3OC[C@@]3(OC(C)=O)[C@H]2[C@H](OC(=O)c2ccccc2)[C@]2(O)C[C@H](O)C(C)=C1C2(C)C
Reduction [1]: 96% | IC50 [2]: 33 nM

CC(=O)O[C@H]1C(=O)[C@]2(C)[C@@H](OC(=O)CCC3CCC4CCCCC4C3)C[C@H]3OC[C@@]3(OC(C)=O)[C@H]2[C@H](OC(=O)C2CCCCC2)[C@]2(O)C[C@H](O)C(C)=C1C2(C)C (stereo partly specified)
Reduction [1]: 81% | IC50 [2]: 160 nM

CC(=O)O[C@H]1C(=O)[C@]2(C)[C@@H](OC(=O)/C=C/c3ccc4ccccc4c3)C[C@H]3OC[C@@]3(OC(C)=O)[C@H]2[C@H](OC(=O)c2ccccc2)[C@]2(O)C[C@H](OC(C)=O)C(C)=C1C2(C)C
IC50 [7]: 340 nM | IC50 [5]: 5.8 nM | Reduction [8]: 60% | Reduction [6]: 99.3%

CC(=O)O[C@H]1C(=O)[C@]2(C)[C@@H](OC(=O)/C=C/c3ccc(C(=O)c4ccccc4)cc3)C[C@H]3OC[C@@]3(OC(C)=O)[C@H]2[C@H](OC(=O)c2ccccc2)[C@]2(O)C[C@H](OC(C)=O)C(C)=C1C2(C)C
Reduction [9]: 92% | IC50 [7]: 52 nM | IC50 [5]: 2.6 nM | Reduction [8]: 94% | IC50 [10]: 69 nM

CC(=O)O[C@@]12CO[C@@H]1C[C@H](O)[C@@]1(C)C(=O)[C@H](O)C3=C(C)[C@@H](OC(=O)/C=C/c4ccc(C(=O)c5ccccc5)cc4)C[C@@](O)([C@@H](OC(=O)c4ccccc4)[C@H]21)C3(C)C
Reduction [1]: 0% | IC50 [2]: 860 nM

CC(=O)O[C@H]1C(=O)[C@]2(C)[C@@H](OC(=O)c3ccc4ccccc4c3)C[C@H]3OC[C@@]3(OC(C)=O)[C@H]2[C@H](OC(=O)c2ccccc2)[C@]2(O)C[C@H](O)C(C)=C1C2(C)C
IC50 [2]: 21 nM

CC(=O)O[C@H]1C(=O)[C@]2(C)[C@@H](OC(C)=O)C[C@H]3OC[C@@]3(OC(C)=O)[C@H]2[C@H](OC(=O)/C=C/c2ccc(C(=O)c3ccccc3)cc2)[C@]2(O)C[C@H](OC(C)=O)C(C)=C1C2(C)C
IC50 [7]: 630 nM | Reduction [8]: 27%

CC(=O)O[C@@]12CO[C@@H]1C[C@H](O)[C@@]1(C)C(=O)[C@H](OC(=O)/C=C/c3ccc(C(=O)c4ccccc4)cc3)C3=C(C)[C@@H](O)C[C@@](O)([C@@H](OC(=O)c4ccccc4)[C@H]21)C3(C)C
Reduction [1]: 95% | IC50 [2]: 42 nM

CC(=O)O[C@@]12CO[C@@H]1C[C@H](OC(=O)OCC(Cl)(Cl)Cl)[C@@]1(C)C(=O)[C@H](OC(=O)OCC(Cl)(Cl)Cl)C3=C(C)[C@@H](OC(=O)CCc4ccc5ccccc5c4)C[C@@](O)([C@@H](OC(=O)c4ccccc4)[C@H]21)C3(C)C
IC50 [5]: 860 nM | Reduction [6]: 0%

CC(=O)O[C@@]12CO[C@@H]1C[C@H](OC(=O)/C=C/c1ccc3ccccc3c1)[C@@]1(C)C(=O)[C@H](OC(=O)/C=C/c3ccc4ccccc4c3)C3=C(C)[C@@H](O)C[C@@](O)([C@@H](OC(=O)c4ccccc4)[C@H]21)C3(C)C
Reduction [1]: 45% | IC50 [2]: 470 nM

CC(=O)O[C@@]12CO[C@@H]1C[C@H](OC(=O)OCC(Cl)(Cl)Cl)[C@@]1(C)C(=O)[C@H](OC(=O)OCC(Cl)(Cl)Cl)C3=C(C)[C@@H](OC(=O)/C=C/c4ccc(C(=O)c5ccccc5)cc4)C[C@@](O)([C@@H](OC(=O)c4ccccc4)[C@H]21)C3(C)C
IC50 [5]: 170 nM | Reduction [6]: 80%

CC(=O)O[C@@]12CO[C@@H]1C[C@H](OC(=O)CCc1ccc(C(=O)c3ccccc3)cc1)[C@@]1(C)C(=O)[C@H](OC(=O)CCc3ccc(C(=O)c4ccccc4)cc3)C3=C(C)[C@@H](OC(=O)CCc4ccc(C(=O)c5ccccc5)cc4)C[C@@](O)([C@@H](OC(=O)c4ccccc4)[C@H]21)C3(C)C
IC50 [7]: 860 nM | Reduction [8]: 0%

CC(=O)O[C@@]12CO[C@@H]1C[C@H](OC(=O)/C=C/c1ccc3ccccc3c1)[C@@]1(C)C(=O)[C@H](OC(=O)CCc3ccc(C(=O)c4ccccc4)cc3)C3=C(C)[C@@H](O)C[C@@](O)([C@@H](OC(=O)c4ccccc4)[C@H]21)C3(C)C
Reduction [1]: 0% | IC50 [2]: 860 nM

CC(=O)O[C@H]1C(=O)[C@]2(C)[C@@H](OC(C)=O)C[C@H]3OC[C@@]3(OC(C)=O)[C@H]2[C@H](OC(=O)CCc2ccc3ccccc3c2)[C@]2(O)C[C@H](OC(C)=O)C(C)=C1C2(C)C
IC50 [7]: 650 nM | Reduction [8]: 24%

CC(=O)O[C@H]1C(=O)[C@]2(C)[C@@H](OC(=O)CNC(=O)c3ccc4ccccc4c3)C[C@H]3OC[C@@]3(OC(C)=O)[C@H]2[C@H](OC(=O)c2ccccc2)[C@]2(O)C[C@H](O)C(C)=C1C2(C)C
Reduction [1]: 42% | IC50 [2]: 500 nM

CC(=O)O[C@@]12CO[C@@H]1C[C@H](O)[C@@]1(C)C(=O)[C@H](O)C3=C(C)[C@@H](OC(=O)/C=C/c4ccc5ccccc5c4)C[C@@](O)([C@@H](OC(=O)c4ccccc4)[C@H]21)C3(C)C
Reduction [1]: 88% | IC50 [2]: 100 nM

CC(=O)O[C@H]1C(=O)[C@]2(C)[C@@H](OC(=O)/C=C/c3ccc(C(=O)c4ccccc4)cc3)C[C@H]3OC[C@@]3(OC(C)=O)[C@H]2[C@H](OC(=O)c2ccccc2)[C@]2(O)C[C@H](O)C(C)=C1C2(C)C
IC50 [5]: 1.6 nM

CC(=O)O[C@@]12CO[C@@H]1C[C@H](O)[C@@]1(C)C(=O)[C@H](O)C3=C(C)[C@@H](OC(=O)CCc4ccc5ccccc5c4)C[C@@](O)([C@@H](OC(=O)c4ccccc4)[C@H]21)C3(C)C
Reduction [1]: 37% | IC50 [2]: 540 nM

CC(=O)O[C@H]1C(=O)[C@@]2(C)[C@H]([C@H](OC(=O)c3ccccc3)[C@]3(O)C[C@H](OC(=O)[C@H](O)[C@@H](NC(=O)c4ccccc4)c4ccccc4)C(C)=C1C3(C)C)[C@]1(OC(C)=O)CO[C@@H]1C[C@@H]2O [PACLITAXEL]
Reduction [11]: 0% | Reduction [12]: 0% | IC50 [13]: 860 nM | IC50 [14]: 860 nM
